Results taken from patent publication US10973778B2, “Using edible carriers to produce Curcuma extracts for oral and topical use” (California Northstate College of Pharmacy, LLC, priority 2012, dated 2021).

Experiment: UV absorption spectra of sunscreen agents and Curcuma longa L. extract
Assay type: physicochemical
Conditions: absorption spectrum in methanol; for wavelength above which absorption is low / very low: octocrylene 0.5 ug/ml, avobenzone 5 ug/ml (FIGS. 1B, 1E); for wavelength above which absorption is practically zero / practically no absorption: 0.5-20 ug/ml depending on agent (FIGS. 1A-1D)
Text: FIGS. 1A-1F compare the absorption spectra of representative current state-of-the-art sunscreen agents to the absorption spectra of Curcuma longa L., according to some embodiments.
The representative sunscreen agents show peaks in the absorption spectrum between the wavelengths of 290 nm to 400 nm which is the range of interest. Ideally, a desired agent would absorb energy across the entire range of 290 nm to 400 nm. In FIGS. 1A-1E, for example, a variety of peak positions are seen in the representative agents, where a high (desirable) absorption can be shown at the wavelength of the peak but there is usually a low or zero absorption at the trough, which is, of course, undesirable. Even combinations of sunscreen agents with peaks and troughs may leave areas within the wavelength range that are not covered, leaving wavelengths for which there is little or no UV protection, an undesirable situation.

COc1ccc(C(=O)CC(=O)c2ccc(C(C)(C)C)cc2)cc1 [avobenzone]
wavelength above which absorption is low / very low: about 390 nm

CC1CC(OC(=O)c2ccccc2O)CC(C)(C)C1 (centres unmarked) [homosalate]
wavelength above which absorption is practically zero / practically no absorption: about 340 nm

CCCCC(CC)COC(=O)C(C#N)=C(c1ccccc1)c1ccccc1 (centres unmarked) [octocrylene]
wavelength above which absorption is practically zero / practically no absorption: about 380 nm | wavelength above which absorption is low / very low: about 370 nm

COc1ccc(C(=O)c2ccccc2)c(O)c1 [oxybenzone]
wavelength above which absorption is practically zero / practically no absorption: about 380 nm
